Assay results published in patent US11242351B2, “Tricyclic inhibitors of the BCL6 BTB domain protein-protein interaction and uses thereof” (priority 2017, dated 2022).
Like-named read-outs stand apart in the source and are kept apart here.

How the values were obtained:
[1] = target: BCL6 BTB domain (biotin-thrombin-BCL6 amino acids 1-129) (Homo sapiens (Human), UniProt P41182); assay: Surface Plasmon Resonance (SPR) assay; type: binding; conditions: Biacore T200, single cycle kinetic analysis
Description: Surface Plasmon Resonance (SPR) Assay
SPR studies were performed using a Biacore™ T200 instrument (GE Health Sciences Inc.). […] The Biacore flow rate was set at 100 μl/min. […] Curve fitting and KD calculations were performed with the Biacore T200 Evaluation software (GE Health Sciences Inc).

[2] = tested on: Karpas422 cells; assay: Tumor cell growth inhibition assay; type: cell-based; conditions: Homo sapiens, KARPAS-422, 144 h, read-out: GI Karpas EC50
Description: Tumor Cell Growth Inhibition Assay:
Karpas422 cells were seeded into a 96-well plate at 2,000 cells/well in 150 μl medium (Alpha-MEM containing 10% FBS, […] Normocin, and […] Gentamycin, Invitrogen). A HP D300 digital dispenser was used to dose cells with DMSO or test compounds across a 10-point range of concentrations (high dose of 5 μM), and cultures were grown in a humidified 5% CO2 incubator at 37° C. After six days, plates were removed from incubator and equilibrated to room temperature. An equal volume of ATPlite assay reagent was added to each well, and samples were processed according to the manufacturer's instructions (Perkin Elmer). The luminescent signal was measured using an Envision plate reader equipped with a US-Luminescence detector.

[3] = tested on: BCL6 reporter construct in SuDHL4-3×BCL6-TK-Luc cells; assay: Cell-based luciferase assay (BCL6 reporter); conditions: 48 h, read-out: Luc IC50
Description: Cell-Based Luciferase Assay:
A BCL6 reporter construct containing three copies of the consensus BCL6 binding site, the TK promoter, and the firefly luciferase gene was stably expressed in SuDHL4 cells after lentivirus infection and selection with Blasticidin. SuDHL4-3×BCL6-TK-Luc cells were seeded into a Viewplate 384-well assay dish at 15,000 cells/well in […] (Alpha-MEM high glucose containing 10% FBS, 25 mM HEPES, […] GlutaMAX, 100 µg/mL Normocin, and […] Gentamycin, Invitrogen). A HP D300 digital dispenser was used to dose cells with DMSO or test compounds across a 10-point range of concentrations (high dose of 10 μM), and cultures were grown in a humidified 5% CO2 incubator at 37° C. After two days, plates were removed from the incubator and equilibrated to room temperature. An equal volume of neolite reporter gene assay reagent was added to each well, and samples were processed according to the manufacturer's instructions (Perkin Elmer). The luminescent signal was measured using an Envision plate reader equipped with a US-Luminescence detector.

[4] = Karpas422 cells, six days, ATPlite
[5] = SuDHL4-3×BCL6-TK-Luc cells, two days

Structure (SMILES)	Kd [1]	EC50 [2, 4]	IC50 [3, 5]	EC50 [2]	IC50 [3]
COc1c(-c2cn(CC(=O)Nc3cc(N4CCOC[C@@H]4C)ncc3Cl)c3nc4n(c(=O)c23)CCC4)cc(C(N)=O)c(O)c1OC [I-69, (S)-5-(1-(2-((5-chloro-2-(3-methylmorpholino)pyridin-4-yl)amino)-2-oxoethyl)-4-oxo-4,6,7,8-tetrahydro-1H-dipyrrolo[1,2-a:2′,3′-d]pyrimidin-3-yl)-2-hydroxy-3,4-dimethoxy-benzamide]	294 nM	10000 nM	7970 nM	–	–
C[C@@H](C1CC1)N1CCN(c2cc(NC(=O)Cn3cc(-c4cc(C(N)=O)c(O)c(F)c4F)c4c(=O)n5c(nc43)CCC5)c(Cl)c(F)n2)[C@@H](C)C1 [I-38, 5-(1-(2-((3-chloro-6-((S)-4-((S)-1-cyclo-propylethyl)-2-methyl-piperazin-1-yl)-2-fluoropyridin-4-yl)amino)-2-oxoethyl)-4-oxo-4,6,7,8-tetrahydro-1H-dipyrrolo [1,2-a:2′,3′-d]pyrimidin-3-yl)-3,4-difluoro-2-hydroxybenzamide]	32.5 nM	444 nM	193 nM	–	–
CCOCCN1CCN(c2cc(NC(=O)Cn3cc(-c4cc(C(N)=O)c(O)c(OC)c4OC)c4c(=O)n5c(nc43)CCC5)c(Cl)c(F)n2)[C@@H](C)C1 [I-71, (S)-5-(1-(2-((3-chloro-6-(4-(2-ethoxyethyl)-2-methylpiperazin-1-yl)-2-fluoropyridin-4-yl)amino)-2-oxo-ethyl)-4-oxo-4,6,7,8-tetrahydro-1H-dipyrrolo [1,2-a:2′,3′-d]pyrimidin-3-yl)-2-hydroxy-3,4-dimethoxybenzamide]	181 nM	1370 nM	1640 nM	–	–
C[C@H]1CN(C2COC2)CCN1c1cc(NC(=O)Cn2cc(-c3cc(C(N)=O)c(O)c(Cl)c3F)c3c(=O)n4c(nc32)CCC4)c(Cl)cn1 [I-14, (S)-3-chloro-5-(1-(2-((5-chloro-2-(2-methyl-4-(oxetan-3-yl)piperazin-1-yl)pyridin-4-yl)amino)-2-oxoethyl)-4-oxo-4,6,7,8-tetrahydro-1H-dipyrrolo[1,2-a:2′,3′-d]pyrimidin-3-yl)-4-fluoro-2-hydroxy-benzamide]	58.1 nM	698 nM	774 nM	–	–
C[C@H]1CN(CC(F)F)CCN1c1cc(NC(=O)Cn2cc(-c3cc(C(N)=O)c(O)c(F)c3F)c3c(=O)n4c(nc32)CCC4)c(Cl)c(F)n1 [I-48, (S)-5-(1-(2-((3-chloro-6-(4-(2,2-difluoroethyl)-2-methylpiperazin-1-yl)-2-fluoropyridin-4-yl)amino)-2-oxoethyl)-4-oxo-4,6,7,8-tetrahydro-1H-dipyrrolo[1,2-a:2′,3′-d]pyrimidin-3-yl)-3,4-difluoro-2-hydroxy-benzamide]	13.7 nM	64.6 nM	96.4 nM	–	–
CCN1CCN(c2cc(NC(=O)Cn3cc(-c4cc(C(N)=O)c(O)c5c4OCO5)c4c(=O)n5c(nc43)CCC5)c(Cl)c(F)n2)[C@@H](C)C1 [I-86, (S)-7-(1-(2-((3-chloro-6-(4-ethyl-2-methyl-piperazin-1-yl)-2-fluoropyridin-4-yl)amino)-2-oxoethyl)-4-oxo-4,6,7,8-tetrahydro-1H-dipyrrolo[1,2-a:2′,3′-d]pyrimidin-3-yl)-4-hydroxybenzo[d][1,3] dioxole-5-carboxamide]	0.81 nM	–	–	6.88 nM	7.85 nM
COc1c(O)c(C(N)=O)cc(-c2cn(CC(=O)Nc3cc(N4CCN(C5COC5)C[C@@H]4C)ncc3Cl)c3nc4n(c(=O)c23)CCC4)c1F [I-19, (S)-5-(1-(2-((5-chloro-2-(2-methyl-4-(oxetan-3-yl)piperazin-1-yl)pyridin-4-yl)amino)-2-oxoethyl)-4-oxo-4,6,7,8-tetrahydro-1H-dipyrrolo[1,2-a:2′,3′-d]pyrimidin-3-yl)-4-fluoro-2-hydroxy-3-methoxybenzamide]	26.6 nM	513 nM	501 nM	–	–
C[C@H]1CN(C)C[C@H](C)N1c1cc(NC(=O)Cn2cc(-c3cc(F)c(O)c(C(N)=O)c3)c3c(=O)n4c(nc32)CCC4)c(Cl)c(F)n1 [I-83, 5-(1-(2-((3-chloro-2-fluoro-6-((2S,6S)-2,4,6-trimethylpiperazin-1-yl)pyridin-4-yl)amino)-2-oxoethyl)-4-oxo-4,6,7,8-tetrahydro-1H-dipyrrolo[1,2-a:2′,3′-d]pyrimidin-3-yl)-3-fluoro-2-hydroxy-benzamide]	11.2 nM	109 nM	465 nM	–	–
C[C@H]1COCCN1c1cc(NC(=O)Cn2cc(-c3cc(C(N)=O)c(O)c(F)c3F)c3c(=O)n4c(nc32)CCC4)c(Cl)c(F)n1 [I-5, (S)-5-(1-(2-((3-chloro-2-fluoro-6-(3-methyl-morpholino)pyridin-4-yl)amino)-2-oxoethyl)-4-oxo-4,6,7,8-tetrahydro-1H-dipyrrolo[1,2-a:2′,3′-d]pyrimidin-3-yl)-3,4-difluoro-2-hydroxy-benzamide]	11.7 nM	–	–	124 nM	167 nM
C[C@H]1CN(C2COC2)CCN1c1cc(NC(=O)Cn2cc(-c3cc(C(N)=O)c(O)c(F)c3F)c3c(=O)n4c(nc32)CCCC4)c(Cl)c(F)n1 [I-44, (S)-5-(1-(2-((3-chloro-2-fluoro-6-(2-methyl-4-(oxetan-3-yl)piperazin-1-yl)pyridin-4-yl)amino)-2-oxo-ethyl)-4-oxo-1,4,6,7,8,9-hexahydropyrido [1,2-a]pyrrolo[2,3-d]pyrimidin-3-yl)-3,4-difluoro-2-hydroxy-benzamide]	25 nM	–	–	310 nM	104 nM
C[C@@H]1CN(C)C[C@H](C)N1c1cc(NC(=O)Cn2cc(-c3cc(C(N)=O)c(O)c(F)c3F)c3c(=O)n4c(nc32)CCC4)c(Cl)c(F)n1 [I-97, 5-(1-(2-((3-chloro-2-fluoro-6-((2R,6S)-2,4,6-trimethylpiperazin-1-yl)pyridin-4-yl)amino)-2-oxoethyl)-4-oxo-4,6,7,8-tetrahydro-1H-dipyrrolo[1,2-a:2′,3′-d]pyrimidin-3-yl)-3,4-difluoro-2-hydroxy-benzamide]	11.9 nM	–	–	70.9 nM	63.5 nM
C[C@H]1CN(C)CCN1c1cc(NC(=O)Cn2cc(-c3cc(Cl)c(O)c(C(N)=O)c3)c3c(=O)n4c(nc32)CCC4)c(Cl)c(F)n1 [I-61, (S)-3-chloro-5-(1-(2-((3-chloro-6-(2,4-dimethylpiperazin-1-yl)-2-fluoropyridin-4-yl)amino)-2-oxoethyl)-4-oxo-4,6,7,8-tetrahydro-1H-dipyrrolo[1,2-a:2′,3′-d]pyrimidin-3-yl)-2-hydroxybenzamide]	3.71 nM	22.2 nM	41.7 nM	–	–
COc1c(O)c(C(N)=O)cc(-c2cn(CC(=O)Nc3cc(N4CCN(C)C[C@@H]4C)nc(F)c3Cl)c3nc4n(c(=O)c23)CCC4)c1F [I-15, (S)-5-(1-(2-((3-chloro-6-(2,4-dimethylpiperazin-1-yl)-2-fluoropyridin-4-yl)amino)-2-oxoethyl)-4-oxo-4,6,7,8-tetrahydro-1H-dipyrrolo[1,2-a:2′,3′-d]pyrimidin-3-yl)-4-fluoro-2-hydroxy-3-methoxybenzamide]	34.1 nM	–	–	–	374 nM
COc1c(O)c(C(N)=O)cc(-c2cn(CC(=O)Nc3cc(N4CCOC[C@@H]4C)nc(F)c3Cl)c3nc4n(c(=O)c23)CCC4)c1F [I-16, (S)-5-(1-(2-((3-chloro-2-fluoro-6-(3-methyl-morpholino)pyridin-4-yl)amino)-2oxoethyl)-4-oxo-4,6,7,8-tetra-hydro-1H-dipyrrolo [1,2-a:2′,3′-d]pyri-midin-3-yl)-4-fluoro-2-hydroxy-3-methoxy-benzamide]	–	–	–	–	510 nM
